# Laboratory results published in the NIST ThermoML archive (doi:10.1021/je700287u).
# ± gives the expanded uncertainty stated by the source.
# Settings: Liquid
smiles,measurement,setting,value
CN(CCO)CCO [N-methyldiethanolamine],mass density,"342.78 K, 1004 kPa",1002 ± 0.5 kg/m3
same,mass density,"342.78 K, 1998 kPa",1002.6 ± 0.5 kg/m3
same,mass density,"342.78 K, 3050 kPa",1003.2 ± 0.5 kg/m3
same,mass density,"342.78 K, 4015 kPa",1003.7 ± 0.5 kg/m3
same,mass density,"342.78 K, 4998 kPa",1004.3 ± 0.5 kg/m3
same,mass density,"342.78 K, 6020 kPa",1004.9 ± 0.5 kg/m3
same,mass density,"342.78 K, 7011 kPa",1005.4 ± 0.6 kg/m3
same,mass density,"342.78 K, 8034 kPa",1006 ± 0.6 kg/m3
same,mass density,"342.78 K, 9001 kPa",1006.5 ± 0.6 kg/m3
same,mass density,"342.78 K, 10000 kPa",1007.1 ± 0.6 kg/m3
same,mass density,"342.78 K, 11000 kPa",1007.6 ± 0.6 kg/m3
same,mass density,"342.78 K, 12012 kPa",1008.2 ± 0.6 kg/m3
same,mass density,"342.78 K, 12947 kPa",1008.7 ± 0.6 kg/m3
same,mass density,"342.78 K, 13991 kPa",1009.2 ± 0.6 kg/m3
same,mass density,"342.78 K, 15001 kPa",1009.8 ± 0.6 kg/m3
same,mass density,"342.78 K, 15987 kPa",1010.3 ± 0.6 kg/m3
same,mass density,"342.78 K, 16998 kPa",1010.8 ± 0.6 kg/m3
same,mass density,"342.78 K, 18005 kPa",1011.3 ± 0.6 kg/m3
same,mass density,"342.78 K, 18981 kPa",1011.9 ± 0.6 kg/m3
same,mass density,"342.78 K, 19980 kPa",1012.4 ± 0.6 kg/m3
same,mass density,"352.68 K, 1013 kPa",994.4 ± 0.5 kg/m3
same,mass density,"352.68 K, 2013 kPa",995 ± 0.5 kg/m3
same,mass density,"352.68 K, 3004 kPa",995.6 ± 0.5 kg/m3
same,mass density,"352.68 K, 3999 kPa",996.1 ± 0.5 kg/m3
same,mass density,"352.68 K, 5003 kPa",996.8 ± 0.5 kg/m3
same,mass density,"352.68 K, 6019 kPa",997.3 ± 0.5 kg/m3
same,mass density,"352.68 K, 7005 kPa",997.8 ± 0.5 kg/m3
same,mass density,"352.68 K, 8001 kPa",998.4 ± 0.5 kg/m3
same,mass density,"352.68 K, 8984 kPa",999 ± 0.5 kg/m3
same,mass density,"352.68 K, 9981 kPa",999.5 ± 0.5 kg/m3
same,mass density,"352.68 K, 11029 kPa",1000.2 ± 0.5 kg/m3
same,mass density,"352.68 K, 11980 kPa",1000.7 ± 0.5 kg/m3
same,mass density,"352.68 K, 13051 kPa",1001.3 ± 0.5 kg/m3
same,mass density,"352.68 K, 14000 kPa",1001.8 ± 0.5 kg/m3
same,mass density,"352.68 K, 14988 kPa",1002.4 ± 0.5 kg/m3
same,mass density,"352.68 K, 16018 kPa",1002.9 ± 0.5 kg/m3
same,mass density,"352.68 K, 16978 kPa",1003.4 ± 0.6 kg/m3
same,mass density,"352.68 K, 17977 kPa",1004 ± 0.6 kg/m3
same,mass density,"352.68 K, 19003 kPa",1004.5 ± 0.6 kg/m3
same,mass density,"352.68 K, 19990 kPa",1005.1 ± 0.6 kg/m3
same,mass density,"362.52 K, 1005 kPa",986.7 ± 0.6 kg/m3
same,mass density,"362.52 K, 2045 kPa",987.3 ± 0.6 kg/m3
same,mass density,"362.52 K, 2982 kPa",987.8 ± 0.6 kg/m3
same,mass density,"362.52 K, 4026 kPa",988.4 ± 0.6 kg/m3
same,mass density,"362.52 K, 5007 kPa",988.9 ± 0.6 kg/m3
same,mass density,"362.52 K, 6014 kPa",989.5 ± 0.6 kg/m3
same,mass density,"362.52 K, 7015 kPa",990.2 ± 0.6 kg/m3
same,mass density,"362.52 K, 7998 kPa",990.8 ± 0.6 kg/m3
same,mass density,"362.52 K, 9003 kPa",991.3 ± 0.6 kg/m3
same,mass density,"362.52 K, 9986 kPa",991.9 ± 0.6 kg/m3
same,mass density,"362.52 K, 10996 kPa",992.5 ± 0.6 kg/m3
same,mass density,"362.52 K, 12008 kPa",993.1 ± 0.6 kg/m3
same,mass density,"362.52 K, 13004 kPa",993.7 ± 0.6 kg/m3
same,mass density,"362.52 K, 13985 kPa",994.2 ± 0.6 kg/m3
same,mass density,"362.52 K, 15010 kPa",994.8 ± 0.6 kg/m3
same,mass density,"362.52 K, 15983 kPa",995.4 ± 0.6 kg/m3
same,mass density,"362.52 K, 17007 kPa",995.7 ± 0.6 kg/m3
same,mass density,"362.52 K, 17985 kPa",996.3 ± 0.6 kg/m3
same,mass density,"362.52 K, 18994 kPa",996.9 ± 0.5 kg/m3
same,mass density,"362.52 K, 19994 kPa",997.4 ± 0.5 kg/m3
